Experimental data published in ChEMBL document CHEMBL3621149, “Cytotoxic labdane-type diterpenes from Hedychium longipetalum inhibiting production of nitric oxide” (Bioorg Med Chem Lett, 2015).
In brackets after ≈: the same amount, converted by molar mass. Peptide text beside a SMILES is read from it. * marks the point of attachment. Cbz = O=C(OCc1ccccc1)*

Assays:
Type in all cases: functional, cell-based
HeLa = assay: Cytotoxicity against human HeLa cells after 48 hrs by SRB assay
[1] = Cytotoxicity against human SGC7901 cells after 48 hrs by SRB assay; details: SGC-7901, 48 h
RAW264.7 = assay: Inhibition of LPS and IFN-gamma-stimulated nitric oxide production in mouse RAW264.7 cells after 18 hrs by Griess method; details: RAW264.7, 18 h

Row | SMILES | IC50 (RAW264.7) [µg/mL] | IC50 (HeLa) [µg/mL] | IC50 [1] [µg/mL]
1 | CC(=O)O[C@H]1C(=O)[C@@]2(C)[C@H]([C@H](OC(=O)c3ccccc3)[C@]3(O)C[C@H](OC(=O)[C@H](O)[C@@H](NC(=O)c4ccccc4)c4ccccc4)C(C)=C1C3(C)C)[C@]1(OC(C)=O)CO[C@@H]1C[C@@H]2O [PACLITAXEL] | – | 0.1 (≈ 0.117 µM) | 0.2 (≈ 0.234 µM)
2 | CC(C)C[C@@H](C=O)NC(=O)[C@H](CC(C)C)NC(=O)[C@H](CC(C)C)NC(=O)OCc1ccccc1 [MG-132] (Cbz-Leu-Leu-Leu-aldehyde) | 0.08 (≈ 0.168 µM) | – | –
3 | CC1(C)CCC[C@]2(C)[C@@H]3C(=CC(=O)[C@@H]12)CO[C@H]3C(=O)c1ccoc1 | 7.5 (≈ 22.8 µM) | > 25 | > 25

The next lines start with results.

Row | IC50 (RAW264.7) [µg/mL] | SMILES | IC50 (HeLa) [µg/mL] | IC50 [1] [µg/mL]
4 | 6.52 (≈ 20.6 µM) | C=C1[C@@H](O)C[C@H]2C(C)(C)CCC[C@]2(C)[C@H]1/C=C/C1=CCOC1=O | 14.8 (≈ 46.9 µM) | 14.5 (≈ 45.9 µM)
5 | 2.77 (≈ 8.33 µM) | C=C1[C@@H](O)C[C@H]2C(C)(C)CCC[C@]2(C)[C@H]1/C=C/C1=CC(=O)OC1O (stereo partly specified) [HEDYFORRESTIN C] | 9.21 (≈ 27.7 µM) | 7.29 (≈ 21.9 µM)
6 | 0.56 (≈ 1.86 µM) | C=C1C[C@@H](O)[C@H]2C(C)(C)CCC[C@]2(C)[C@H]1/C=C/c1ccoc1 [YUNNACORONARIN A] | 6.58 (≈ 21.9 µM) | 6.21 (≈ 20.7 µM)
7 | 6.1 (≈ 17.5 µM) | C=C1C[C@@H](O)[C@H]2C(C)(C)CCC[C@]2(C)[C@H]1C/C=C1/CC(OC)OC1=O (stereo partly specified) | 11.3 (≈ 32.5 µM) | 8.74 (≈ 25.1 µM)
8 | 5.58 (≈ 16.8 µM) | C=C1[C@@H](O)[C@@H](O)[C@H]2C(C)(C)CCC[C@]2(C)[C@H]1/C=C/C1=CCOC1=O | > 25 | > 25
